# Measured values reported in patent US20250381204A1, “A CANNABINOID MIXTURE WITH TERPENES FOR THE TREATMENT OF ANXIETY” (priority 2022, published 2025).
# Read-outs that look alike come from different tables or passages of the source.
# Tests used:
# Fish = assay: Tank diving experiments (Example 8); assay type: in vivo
# Procedure: Fish were exposed to drug, either pure CBD, CBD containing terpenes, or CBD plus CBG, in a litre of water for 30 min prior to being transferred to a novel tank containing fresh fish water in the absence of drug using a net and their behaviour recorded over a 6 min period using a camera mounted to one side. The vertical position of the fish in the tank can reliably be used as a proxy for an individual's anxiety. For example, the less time a fish spends on the bottom of the tank the less anxious. The response variables were number of visits to the top half of the tank, distance from the bottom of the tank, and proportion of time spent in the bottom third of the tank. Time spent on the bottom, distance travelled and number of top half visits determining using Ethovision software (Noldus). Water was changed, tanks and fish nets cleaned between each fish.
# The anxiolytic concentration of CBD was first assessed by treating the fish with 0-15 mg/L CBD.
# The ratio of CBD minus terpenes:CBD plus terpenes tested was 2:0, 1.5:0.5, 1:1, 0.5:1.5 and 0:2.
# 5 dpf zebrafish larvae = assay type: in vivo, Zebrafish (Danio rerio)
# Procedure: Fish were bred and reared in the aquarium facility at Queen Mary University of London, licenced by the UK Home Office. Zebrafish (Danio rerio) adults from the Tuebingen wild type (TUWT) line were kept in glass breeding tanks in fish water that contain sodium bicarbonate (0.9 mM), calcium sulphate (0.05 mM) and marine salts (Sigma, Poole, UK; 0.018 g/l). Fish were maintained on a constant 14 h light: 10 h dark cycle at 28° C. They were fed 2 times a day with Zmsystems® ZM-000 high protein food particle (Tecniplast® UK. London) from 5 dpf-10 dpf, ZM-100 and paramecium from 11 dpf-14 dpf, and, ZM-200 and brineshrimp from 14 dpf-30 dpf. At one month of age, animals were transferred into the aquaria where they were fed Zmsystems® flake food and brineshrimp.
# After incubation the 48-well plate was placed in a DanioVision Observation Chamber (Noldus) and the larvae were subjected to a forced dark/light transition assay while still in the compound solution. The assay consisted of a 10 min baseline period in the dark, followed by a 10 min light challenge, followed by a 15 min dark period. DanioVision Observation Chamber controlled the lighting and recorded the assay with an infrared camera (resolution, 30 frames per second (fps)). Footage obtained was processed by EthoVision XT NUMBER (Noldus). Mean distance moved was measured with 10 second intervals.
# All statistical analyses were carried out in R version 3.2.2 (R core developer team reference). Data distributions and model fit were initially assessed visually. AIC values were used in model selection. Due to difference in variance between groups we fitted a linear mixed model (LMM) in the gls package (ref).
# It was first assessed whether the different compounds and concentrations were associated with differences in locomotion after 30 min exposure. We subsetted the last min in the baseline and fitted an LME with mean distance moved as the response variable, compound as the fixed effect, and individual as the random effect, with a variance structure for compound.
# The light challenge and dark phase were subsetted to assess if different compounds and concentrations were associated with different patterns of movement. In the light challenge the increase of movement over time was considered recovery. In the dark phase decrease of movement was considered recovery. We fitted an LME with mean distance moved (in 10 second time bins) as the response variable, the interaction between time and concentration as a fixed effect, individual as the random effect and introduced a variant structure to account for the heterogeneity in variance between drugs.
# larvae = assay: Forced light/dark transition assay screening hemp extracts, diazepam and caffeine (Example 5); assay type: in vivo, zebrafish; conditions: for response when the light is switched on (from trace): whole duration of the assay
# Procedure: Our forced light/dark transition protocol was as follows. First, there was 10 minutes of total darkness (which we refer to as the baseline period; compounds were introduced at the beginning of the baseline period, and 10 minutes were allotted to allow for drug absorption and acclimation). Next, there was a period of five minutes of light exposure followed by five minutes of dark exposure, repeated three times. Finally, there was an additional five minutes of dark exposure.
# A variety of statistical techniques were used to address our hypotheses about the potential anxiolytic and anxiogenic effects of four compounds. In outline: • 1) Overall models were carried out using linear mixed-effect models • 2) Deliberate pairwise comparisons between controls and dosages of interest were carried out using appropriate two-sample comparison tests
# All statistical analyses were carried out in R version 3.2.2 (R core developer team). Overall models were linear mixed-effects models (LMMs), and were fitted using the Ime4 package (Bates, Machler, Bolker, & Walker, 2015). Data were transformed as indicated to fit the assumptions of LMMs. Posthoc tests were performed using the multcomp package in R. Data distributions were initially assessed visually and model diagnostics were subsequently checked to assure appropriate fits.
# Comparisons between patterns of activity during the light phases (i.e. rate of recovery during light phases, which indicates a possible anxiolytic or anxiogenic effect) were performed by analysing the slope of the linear regression function of individual mean distance vs time during light phases.
# For pairwise comparisons on specific concentrations, nonparametric tests are used as indicated on non-normally distributed data.
# 5 dpf larvae = assay: Forced light/dark transition test, 10 min dark-(5 min light-5 min dark)*3-5 min dark (Example 4); assay type: in vivo, zebrafish
# Procedure: • All the tests were done with 5 dpf larvae unless stated otherwise. • A forced light/dark transition test was used. (10 min dark-(5 min light-5 min dark)*3-5 min dark) • The dose response curve was made as follows; • The locomotor activity of the larvae at the last min of acclimation (min 9-10 in the assay), was taken • The mean for each larvae over this period of time was calculated • Then the mean of each condition was calculated • The means plotted are relative to the control, control was set at 1
# [1] = 2 mg/L CBD in combination with 0-5 mg/L CBG
# [2] = 1% ethanol, 80 mg/L caffeine, 250 μg/L fluoxetine, 100 mM NaCl
compound,measurement,setting,value
"C=C(C)[C@@H]1CCC(C)=C[C@H]1c1c(O)cc(CCCCC)cc1O [CBD, Cannabidiol]","anxiolytic effect in tank diving (top half visits, distance from bottom, time in bottom third)","Fish; 0-15 mg/L CBD, 30 min exposure, 6 min recording",anxiolytic effect
"CCCCCc1cc(O)c(C/C=C(\C)CCC=C(C)C)c(O)c1 [CBG, Cannabigerol]",anxiolytic / anxiogenic effect of CBG in the mixture,Fish; [1],"displays no anxiolytic effect, but may potentially have an undesirable anxiogenic effect"
same,distance from the bottom of the tank,Fish; [1],no significant change in the distance from the bottom of the tank with increasing CBG concentration
same,frequency of visits to the top half of the tank,Fish; [1],decreased with increasing concentration of CBG
same,proportion of time spent in the bottom third of the tank,Fish; [1],spend a greater proportion of time in the bottom third of the tank
"CNCCC(Oc1ccc(C(F)(F)F)cc1)c1ccccc1 (centres unmarked) [Fluoxetine, fluoxetine]",basal locomotion (last minute of baseline) vs DMSO,5 dpf zebrafish larvae; [2],move significantly less than DMSO
same,movement in the beginning of the dark period / in the dark phase vs DMSO,5 dpf zebrafish larvae; [2],move less overall in the dark phase
same,rate of recovery in the dark phase (decrease of movement over time) vs DMSO,5 dpf zebrafish larvae; [2],recover less over time
same,rate of recovery in the light challenge (increase of movement over time) vs DMSO,5 dpf zebrafish larvae; [2],recover less over time
[Cl-].[Na+] [NaCl],basal locomotion (last minute of baseline) vs DMSO,"5 dpf zebrafish larvae; zebrafish, in vivo",no difference in locomotion
same,freezing in the light challenge vs DMSO,"5 dpf zebrafish larvae; zebrafish, in vivo",froze less
same,movement in the beginning of the dark period / in the dark phase vs DMSO,"5 dpf zebrafish larvae; zebrafish, in vivo",no difference in movement in the beginning of the dark period
same,rate of recovery in the dark phase (decrease of movement over time) vs DMSO,"5 dpf zebrafish larvae; zebrafish, in vivo",recovers slower than DMSO
same,rate of recovery in the light challenge (increase of movement over time) vs DMSO,"5 dpf zebrafish larvae; zebrafish, in vivo",did not recover differently from DMSO
Cn1c(=O)c2c(ncn2C)n(C)c1=O [caffeine],dosage with significantly lower locomotion than control larvae (Tukey posthoc),larvae; after ~10 minutes of exposure,80 mg/L
same,dosage as predictor of mean distance moved after ~10 minutes of exposure (LMM),"larvae; last minute of baseline, dark",Dosage was a significant predictor of mean distance moved after 10 minutes of exposure
same,dosages significantly different from the control during light phases (Tukey posthoc pairwise comparison),larvae; light phases,≥ 40 mg/L
same,time×dosage and dosage×light phase number as predictors of mean distance moved during light phases (LMM),larvae; light phases,Both fixed effects were significant predictors of mean distance moved
same,response when the light is switched on (from trace),larvae,much the same for all doses
same,basal locomotion (last minute of baseline) vs DMSO,5 dpf zebrafish larvae; [2],move significantly less than DMSO
same,freezing in the light challenge vs DMSO,5 dpf zebrafish larvae; [2],froze less in the beginning of the light challenge
same,movement in the beginning of the dark period / in the dark phase vs DMSO,5 dpf zebrafish larvae; [2],move less overall in the dark phase
same,rate of recovery in the dark phase (decrease of movement over time) vs DMSO,5 dpf zebrafish larvae; [2],recover less over time
same,rate of recovery in the light challenge (increase of movement over time) vs DMSO,5 dpf zebrafish larvae; [2],negative impact of locomotion over time
CN1C(=O)CN=C(c2ccccc2)c2cc(Cl)ccc21 [diazepam],effect on locomotor,"5 dpf larvae; 5 dpf larvae, dose response",impairment diazepam has on locomotor
same,rate of recovery (slope) during light phases vs DMSO control,larvae; 0.25 μM,"significantly higher slope, or rate of recovery"
same,rate of recovery (slope of linear regression) during the first light phase (Kruskal-Wallis),"larvae; Experiment 1 (diazepam), all dosages",faster rate of recovery
same,mean distance moved over time in the light challenge vs control,"larvae; Experiment 2 (diazepam), 2.5 μM, minute 10 to 20",increases movement over time faster than the control in the light challenge
same,mean distance moved over time in the dark period vs control,"larvae; Experiment 2 (diazepam), 2.5 μM, minute 20 to 30",decreases movement over time faster than the control in the dark period
same,mean distance moved in the baseline period (LMM),"larvae; Experiment 2 (diazepam), minute 9 to 10",no significant difference found in mean distance moved in the baseline period
same,dosages with significantly lower distance moved than the control fish (Tukey post hoc),"larvae; after ~10 minutes of exposure, Experiment 1 (diazepam)",≥ 0.25 µM
same,time×dosage and dosage×light phase number as predictors of mean distance moved during light phases (LMM),larvae; light phases,Both fixed effects were significant predictors of mean distance moved
same,response when the light is switched on (from trace),larvae,stops the fish moving to the bottom of the tank
same,anxiolytic effect (overall conclusion),"larvae; zebrafish, in vivo",anxiolytic effect
CCO [ethanol],behaviour in the acclimation period,5 dpf larvae; 0.25% ethanol,start moving erratically
same,behaviour when turning on the light,"5 dpf larvae; 0.5% ethanol, most groups freeze",starts moving more than before
same,rate of recovery in the dark phase (decrease of movement over time) vs DMSO,5 dpf zebrafish larvae; [2],recovers faster
same,rate of recovery in the light challenge (increase of movement over time) vs DMSO,5 dpf zebrafish larvae; [2],negative impact of locomotion over time
same,basal locomotion (last minute of baseline) vs DMSO,"5 dpf zebrafish larvae; zebrafish, in vivo",moved significantly more than DMSO
same,freezing in the light challenge vs DMSO,"5 dpf zebrafish larvae; zebrafish, in vivo",froze less in the beginning of the light challenge
same,movement in the beginning of the dark period / in the dark phase vs DMSO,"5 dpf zebrafish larvae; zebrafish, in vivo",moves more at the beginning of the dark period compared to DMSO
